Experimental data from US20160166581A1 (priority 2014, published 2016).
Values joined by “and” are separate entries in the source; they are usually repeats but may differ in a detail not shown here. Equal entries are not always repeated.

How the values were obtained:
[1] = test system: horses with black walnut extract induced laminitis; assay: Black walnut extract induced laminitis, treatment with donepezil; assay type: in vivo, horse
Procedure: Three domestic horses, average age 26, are corralled in close proximity to a Black Walnut tree with exposed roots and debris from black walnuts shells, including leaves. The weight of the horses is 1100-1200 lbs. Horses are quartered in a 24×36 square foot area with a Black Walnut tree within the confined area.
The horses are evaluated continuously after 6 hours of exposure to remove them from exposure to the black walnut extract once symptoms occur.
Subsequent doses are 50 mg on Day #3-7. Horses are given Timothy hay and water, but no other medicinal or mechanical interventions.
The same 3 horses are used in similar exposure design, as in the original experiment to induce laminitis. […] The dose is tapered to 50 mg orally on Days #3 through #7.

feline diabetic subjects = assay: Glucose Tolerance Test/Felines (ipGTT); assay type: in vivo, cat
Procedure: Glucose Tolerance Test/Felines. Four feline diabetic subjects (male, age 5-7 years) with newly diagnosed DM (diabetes). […] These 4 cats are subjected to intraperitoneal injection of 2 grams/kg glucose. (ipGTT). Blood glucose levels are obtained via Cephalic iv. catheter at 30 and 60 minutes.

[2] = test system: cats with stage 3 and 4 renal disease; assay: Feline renal disease, serum creatinine pre and post treatment; assay type: in vivo, cat; set-up: Serum creatinine post treatment: unit not given here
Source text: This example measures feline renal disease. […] The average weight of the domestic cats was approximately 6 lbs.

[3] = test system: obese domestic cats with diabetes
Procedure: Five obese domestic cats with diabetes (average weight 14.2 lbs.) are on glargine insulin for glycemic control. […] All cats are being treated with glargine insulin in bid dosing schedule. […] Over a 14 day period morning blood glucose levels (prior to feeding) are recorded.

[4] = after repeat exposure and treatment
[5] = first exposure, 3 horses, 100 mg orally Day 1-2, 50 mg Day 3-7
[6] = repeat exposure, same 3 horses, 100 mg Day 1-2, 50 mg Days 3-7
[7] = 4 cats, 1.25 mg daily for 4 weeks
[8] = individual cats #1-#4, donepezil 1.25 mg daily for 4 weeks
[9] = individual cats #1-#4, donepezil 1.25 mg daily for 4 weeks, 2 gm/kg glucose ip

Compound: COc1cc2c(cc1OC)C(=O)C(CC1CCN(Cc3ccccc3)CC1)C2 (centres unmarked) [donepezil]
- Gait (horse movements) [1, 4]: no abnormalities
- Lasting lameness or constitutional symptoms [1, 4]: No observable lasting lameness or constitutional symptoms
- Systemic symptoms after day #7 ([1]; first exposure, 3 horses): No systemic symptoms are noted
- All subjects appear normal by [1, 5]: ≤ 7 days
- Normal activity noted as early as [1, 5]: 5 days
- Warmth, posturing and trembling resolved by [1, 5]: ≤ 3 days
- Resolution of symptoms and normal movements completed by [1, 6]: ≤ 7 days
- Resolution of symptoms and normal movements observed at [1, 6]: 5 days
- 30 minutes blood glucose levels on average less than before treatment (feline diabetic subjects; [7]): approximately 24%
- 60 minute GTT on average less than without treatment (feline diabetic subjects; [7]): 42%
- Glucose tolerance (in words) (feline diabetic subjects; 4 weeks prior to ipGTT testing, versus same subjects before treatment): improved glucose tolerance
- Decrease of 30 minute ipGTT blood glucose versus before treatment (feline diabetic subjects; [8]): 29% and 22% (2×) and 25%
- Decrease of 60 minute ipGTT blood glucose versus before treatment (feline diabetic subjects; [8]): 42% and 39% and 41% and 46%
- Blood glucose at 30 minutes in ipGTT (feline diabetic subjects; [9]): 269 mg/dL and 292 mg/dL and 278 mg/dL and 304 mg/dL
- Blood glucose at 60 minutes in ipGTT (feline diabetic subjects; [9]): 152 mg/dL and 164 mg/dL and 145 mg/dL and 147 mg/dL
- Improvement of creatinine in six cats ([2]; donepezil 2.5 mg daily over 4 week period): approximately 56%
- Serum creatinine post treatment ([2]; individual cats 1-6, stage 3 or 4 renal disease, donepezil 2.5 mg daily for 4 weeks): 1.8 and 2.6 and 2.0 and 1.9 and 2.5 and 2.3
- Decrease of serum creatinine post versus pre treatment ([2]; individual cats 1-6, donepezil 2.5 mg daily for 4 weeks): 49% and 53% and 45% and 60% and 65% and 62%
- Dose of glargine insulin decreased to ([3]; #2 Cat, from 3 u. bid, secondary to low morning blood glucose): 2 units
- Morning blood glucose levels (prior to feeding) during treatment ([3]; individual diabetic cats #1-#5 on glargine insulin, 1.25 mg donepezil orally daily, 14 day period): 88 to 113 mg/dL and 105 to 128 mg/dL and 96 to 117 mg/dL
